Experimental data reported in ChEMBL document CHEMBL1147205 (Eur J Med Chem, 2007).
≈ marks a conversion by molar mass, not a printed value. Calls of active or inactive are those of the source. The calls are words filed in the database; no cut-off is given here.

Tests used:
physchem [1] = conditions: phosphate buffer, pH 5
Description: Solubility in phosphate buffer at pH 5.0

[2] = artificial membrane
Description: Affinity to immobilized artificial membrane by reversed phase HPLC

physchem [3] = conditions: phosphate buffer, pH 7.4
Description: Solubility in phosphate buffer at pH 7.4

physchem [4] = conditions: phosphate buffer, pH 7.5
Description: Lipophilicity in phosphate buffer at pH 7.5

Macrophage [5] = test: Inhibition of SP-A degradation in rabbit alveolar macrophages; assay type: functional, cell-based; conditions: Oryctolagus cuniculus
Macrophage [6] = test: Effect on rabbit alveolar macrophages assessed as reduction in viability at 50 uM by trypan blue exclusion; assay type: functional, cell-based; conditions: Oryctolagus cuniculus

Row | Structure (SMILES) | solubility (physchem [1]) [µM] | logD IAM [2] | solubility (physchem [3]) [µM] | logD (physchem [4]) | Activity (Macrophage [5]) | Activity (Macrophage [6])
1 | CCCCc1oc2ccccc2c1C(=O)c1cc(I)c(OCCN2CCCCC2)c(I)c1 | 2220 (≈ 1460 µg/mL) | 4.28 | 23 (≈ 15.1 µg/mL) | 8.04 | Active | –
2 | CCCCc1oc2ccccc2c1C(=O)c1cc(I)c(OCCN2CCCC2)c(I)c1 | 1860 (≈ 1200 µg/mL) | 4.23 | 49 (≈ 31.5 µg/mL) | 7.82 | Active | Active
3 | CCCCc1oc2ccccc2c1C(=O)c1cc(I)c(OCCN2CCOCC2)c(I)c1 | 170 (≈ 112 µg/mL) | 3.36 | 15 (≈ 9.89 µg/mL) | 6.15 | – | –

Continued, in another order:

Row | solubility (physchem [1]) [µM] | logD IAM [2] | solubility (physchem [3]) [µM] | logD (physchem [4]) | Structure (SMILES) | Activity (Macrophage [5]) | Activity (Macrophage [6])
4 | 230 (≈ 155 µg/mL) | 4.58 | 14 (≈ 9.43 µg/mL) | 8.74 | CCCCc1oc2ccccc2c1C(=O)c1cc(I)c(OCCN(C(C)C)C(C)C)c(I)c1 | – | –
5 | 1040 (≈ 657 µg/mL) | 3.56 | 212 (≈ 134 µg/mL) | 7.98 | CCCCc1oc2ccccc2c1C(=O)c1cc(I)c(OCCCN(C)C)c(I)c1 | Active | Active
6 | 2210 (≈ 1360 µg/mL) | 3.64 | 51 (≈ 31.5 µg/mL) | 7.15 | CCCCc1oc2ccccc2c1C(=O)c1cc(I)c(OCCN(C)C)c(I)c1 | – | –
